For ten molecules, Emax and EC50 results are on record in patent US10988524B2, “Modified relaxin B chain peptides and their therapeutic use” (priority 2018, dated 2021).

“And” between values parts separate entries of the source, which are not always exact repeats. Identical values can stand only once. Non-standard residues stand in square brackets, D forms with d. Residues, ends and D or L forms follow the SMILES beside them. αMeK = C[C@](N)(CCCCN)C(=O)O; Nle = CCCC[C@H](N)C(=O)O; Aib = CC(C)(N)C(=O)O

The experiment has as its target T1, RXFP1 (Homo sapiens, UniProt Q9HBX9).
T1 sequence (Q9HBX9 1-757): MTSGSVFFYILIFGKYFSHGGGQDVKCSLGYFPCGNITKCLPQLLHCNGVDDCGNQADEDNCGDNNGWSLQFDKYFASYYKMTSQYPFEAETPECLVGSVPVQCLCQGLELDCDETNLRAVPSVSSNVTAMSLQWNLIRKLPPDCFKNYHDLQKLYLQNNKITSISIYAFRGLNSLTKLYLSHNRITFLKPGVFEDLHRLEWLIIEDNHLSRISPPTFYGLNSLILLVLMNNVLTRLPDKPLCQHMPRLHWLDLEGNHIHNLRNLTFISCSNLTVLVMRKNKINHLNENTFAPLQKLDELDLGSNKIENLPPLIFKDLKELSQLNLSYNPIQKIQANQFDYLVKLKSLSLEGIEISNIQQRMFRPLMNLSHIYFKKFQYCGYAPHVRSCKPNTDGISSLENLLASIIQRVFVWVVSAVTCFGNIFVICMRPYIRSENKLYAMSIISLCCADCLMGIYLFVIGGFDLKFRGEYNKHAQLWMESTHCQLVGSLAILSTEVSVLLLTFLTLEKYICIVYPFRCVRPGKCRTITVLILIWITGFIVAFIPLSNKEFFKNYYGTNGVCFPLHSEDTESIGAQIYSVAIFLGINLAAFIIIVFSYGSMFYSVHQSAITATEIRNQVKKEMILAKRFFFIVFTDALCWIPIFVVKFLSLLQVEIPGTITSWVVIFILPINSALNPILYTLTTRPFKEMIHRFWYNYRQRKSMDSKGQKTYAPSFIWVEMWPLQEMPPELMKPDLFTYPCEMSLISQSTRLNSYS
Nature of the experiment: OVCAR5 cAMP assay (RXFP1 agonist activity, HTRF). As to conditions: for Emax: OVCAR-5, read-out: cAMP assay in OVCAR 5 cells Emax, maximal intracellular cAMP relative to H2-relaxin in the same test occasion; for EC50: cAMP assay in OVCAR 5 cells EC50 (nM), OVCAR5 cells expressing endogenous RXFP1, cAMP by HTRF, 30 min at 37° C., 1 mM IBMX. In general terms: cAMP levels reflect the balance of adenylyl cyclase and phosphodiesterase activity.

In general, Emax refers to the size of the effect at its maximum, as opposed to the concentration needed. For orientation: EC50 means the concentration giving half of the maximal effect. A high value points to a less potent agent. As for `CC[C@H](C)[C@H](NC(=O)[C@H](C)NC(=O)[C@H](C)NC(=O)[C@H](CCCNC(=N)N)NC(=O)[C@@H](NC(=O)[C@H](CCCCN)NC(=O)[C@H](CCC(=O)O)NC(=O)[C@H](CCCNC(=N)N)NC(=O)CNC(=O)[C@H](CCC(=O)O)NC(=O)[C@H](CC(C)C)NC(C)=O)C(C)C)C(=O)NC(C)(C)C(=O)NC(C)(C)C(=O)N[C@@H](CCC(=O)O)C(=O)NCC(=O)N[C@@H](CCSC)C(=O)N[C@@H](CO)C(=O)N[C@H](C(=O)N[C@@H](Cc1c[nH]c2ccccc12)C(=O)N[C@@H](CO)C(=O)N[C@@H](CCCCN)C(=O)N[C@@H](CCCNC(=N)N)C(=O)N[C@@H](CCCCN)C(=O)N[C@@H](CCCCN)C(N)=O)[C@@H](C)O` [compound 16] (Ac-LEGREKVRAAI[Aib][Aib]EGMSTWSKRKK-NH2), the Emax was 101% and the EC50 is not above 5 nM.

Regarding `CCCC[C@H](NC(=O)CNC(=O)[C@H](CCC(=O)O)NC(=O)C(C)(C)NC(=O)C(C)(C)NC(=O)[C@@H](NC(=O)[C@H](C)NC(=O)[C@H](C)NC(=O)[C@H](CCCNC(=N)N)NC(=O)[C@@H](NC(=O)[C@H](CCCCN)NC(=O)[C@H](CCC(=O)O)NC(=O)[C@H](CCCNC(=N)N)NC(=O)CNC(=O)[C@H](CCC(=O)O)NC(=O)[C@H](CC(C)C)NC(C)=O)C(C)C)[C@@H](C)CC)C(=O)N[C@@H](CO)C(=O)N[C@H](C(=O)N[C@@H](Cc1c[nH]c2ccccc12)C(=O)N[C@@H](CO)C(=O)NC(C)(C)C(=O)N[C@@H](CCCNC(=N)N)C(=O)N[C@@H](CCCCN)C(=O)N[C@@H](CCCCN)C(N)=O)[C@@H](C)O` [compound 17] (Ac-LEGREKVRAAI[Aib][Aib]EG[Nle]STWS[Aib]RKK-NH2), the maximum response (Emax) was found to be 90%.

For the molecule `CC[C@H](C)[C@H](NC(=O)[C@H](CCC(N)=O)NC(=O)[C@H](C)NC(=O)[C@H](CCCNC(=N)N)NC(=O)[C@@H](NC(=O)[C@H](CCCCN)NC(=O)[C@H](CCC(=O)O)NC(=O)[C@H](CCCNC(=N)N)NC(=O)CNC(=O)[C@H](CCC(=O)O)NC(=O)[C@H](CC(C)C)NC(C)=O)C(C)C)C(=O)NC(C)(C)C(=O)NC(C)(C)C(=O)N[C@@H](CCC(=O)O)C(=O)NCC(=O)N[C@@H](CCSC)C(=O)N[C@@H](CO)C(=O)N[C@@H](CCCCN)C(=O)N[C@@H](Cc1c[nH]c2ccccc12)C(=O)N[C@@H](CO)C(=O)NC(C)(C)C(=O)N[C@@H](CCCNC(=N)N)C(=O)N[C@@H](CCCCN)C(N)=O` [compound 18] (Ac-LEGREKVRAQI[Aib][Aib]EGMSKWS[Aib]RK-NH2), the Emax amounted to 104%.

Take `CCCC[C@H](NC(=O)CNC(=O)[C@H](CCC(=O)O)NC(=O)C(C)(C)NC(=O)C(C)(C)NC(=O)[C@@H](NC(=O)C(C)(C)NC(=O)[C@H](C)NC(=O)[C@H](CCCNC(=N)N)NC(=O)[C@@H](NC(=O)[C@H](CCCCN)NC(=O)[C@H](CCC(=O)O)NC(=O)[C@H](CCCNC(=N)N)NC(=O)CNC(=O)[C@H](CCC(=O)O)NC(=O)[C@H](CC(C)C)NC(C)=O)C(C)C)[C@@H](C)CC)C(=O)N[C@@H](CO)C(=O)N[C@H](C(=O)N[C@@H](Cc1c[nH]c2ccccc12)C(=O)N[C@@H](CO)C(=O)N[C@@H](CCCCN)C(=O)N[C@@H](CCCNC(=N)N)C(=O)N[C@@H](CCCCN)C(=O)N[C@@H](CCCCN)C(N)=O)[C@@H](C)O` [compound 19] (Ac-LEGREKVRA[Aib]I[Aib][Aib]EG[Nle]STWSKRKK-NH2): the maximal response (Emax) turned out to be 97%.

In the case of `CCCC[C@H](NC(=O)CNC(=O)[C@H](CCC(=O)O)NC(=O)C(C)(C)NC(=O)C(C)(C)NC(=O)[C@@H](NC(=O)C(C)(C)NC(=O)[C@H](C)NC(=O)[C@H](CCCNC(=N)N)NC(=O)[C@@H](NC(=O)[C@H](CCCCN)NC(=O)[C@H](CCC(=O)O)NC(=O)[C@H](CCCNC(=N)N)NC(=O)CNC(=O)[C@H](CCC(=O)O)NC(=O)[C@H](CC(C)C)NC(C)=O)C(C)C)[C@@H](C)CC)C(=O)N[C@@H](CO)C(=O)N[C@H](C(=O)N[C@@H](Cc1c[nH]c2ccccc12)C(=O)N[C@@H](CO)C(=O)N[C@@](C)(CCCCN)C(=O)N[C@@H](CCCNC(=N)N)C(=O)N[C@@H](CCCCN)C(=O)N[C@@H](CCCCN)C(N)=O)[C@@H](C)O` [compound 20] (Ac-LEGREKVRA[Aib]I[Aib][Aib]EG[Nle]STWS[αMeK]RKK-NH2), the Emax came out at 97%; the concentration giving a half-maximal response (EC50) is ≤ 10 nM and ≤ 5 nM and 1.8 nM.

Regarding `CCCC[C@H](NC(=O)CNC(=O)[C@H](CCC(=O)O)NC(=O)C(C)(C)NC(=O)C(C)(C)NC(=O)[C@@H](NC(=O)[C@H](CCC(N)=O)NC(=O)[C@H](C)NC(=O)[C@H](CCCNC(=N)N)NC(=O)[C@@H](NC(=O)[C@H](CCCCN)NC(=O)[C@H](CCC(=O)O)NC(=O)[C@H](CCCNC(=N)N)NC(=O)CNC(=O)[C@H](CCC(=O)O)NC(=O)[C@H](CC(C)C)NC(C)=O)C(C)C)[C@@H](C)CC)C(=O)N[C@@H](CO)C(=O)N[C@H](C(=O)N[C@@H](Cc1c[nH]c2ccccc12)C(=O)N[C@@H](CO)C(=O)NC(C)(C)C(=O)N[C@@H](CCCNC(=N)N)C(=O)N[C@@H](CCCCN)C(=O)N[C@@H](CCCCNC(C)=O)C(N)=O)[C@@H](C)O` [compound 21] (Ac-LEGREKVRAQI[Aib][Aib]EG[Nle]STWS[Aib]RKK(Ac)-NH2), the Emax is 96% and the EC50 stood at 32.8 nM.

For `CCCC[C@H](NC(=O)CNC(=O)[C@H](CCC(=O)O)NC(=O)C(C)(C)NC(=O)C(C)(C)NC(=O)[C@@H](NC(=O)[C@H](CCC(N)=O)NC(=O)[C@H](C)NC(=O)[C@H](CCCNC(=N)N)NC(=O)[C@@H](NC(=O)[C@H](CCCCN)NC(=O)[C@H](CCC(=O)O)NC(=O)[C@H](CCCNC(=N)N)NC(=O)CNC(=O)[C@H](CCC(=O)O)NC(=O)[C@H](CC(C)C)NC(C)=O)C(C)C)[C@@H](C)CC)C(=O)N[C@@H](CO)C(=O)N[C@H](C(=O)N[C@@H](Cc1c[nH]c2ccccc12)C(=O)N[C@@H](C)C(=O)NC(C)(C)C(=O)N[C@@H](CCCNC(=N)N)C(=O)N[C@@H](CCCCN)C(=O)N[C@@H](CCCCN)C(N)=O)[C@@H](C)O` [compound 22] (Ac-LEGREKVRAQI[Aib][Aib]EG[Nle]STWA[Aib]RKK-NH2), the maximal response (Emax) was determined as 102%.

As to `CCCC[C@H](NC(=O)CNC(=O)[C@H](CCC(=O)O)NC(=O)C(C)(C)NC(=O)C(C)(C)NC(=O)[C@@H](NC(=O)[C@H](CCC(N)=O)NC(=O)[C@H](C)NC(=O)[C@H](CCCNC(=N)N)NC(=O)[C@@H](NC(=O)[C@H](CCCCN)NC(=O)[C@H](CCC(=O)O)NC(=O)[C@H](CCCNC(=N)N)NC(=O)CNC(=O)[C@H](CCC(=O)O)NC(=O)[C@H](CC(C)C)NC(C)=O)C(C)C)[C@@H](C)CC)C(=O)N[C@@H](CO)C(=O)N[C@H](C(=O)N[C@@H](Cc1c[nH]c2ccccc12)C(=O)N[C@H](C(=O)NC(C)(C)C(=O)N[C@@H](CCCNC(=N)N)C(=O)N[C@@H](CCCCN)C(=O)N[C@@H](CCCCN)C(N)=O)[C@@H](C)O)[C@@H](C)O` [compound 23] (Ac-LEGREKVRAQI[Aib][Aib]EG[Nle]STWT[Aib]RKK-NH2), the Emax was 95%.

In the case of `CCCC[C@H](NC(=O)CNC(=O)[C@H](CCC(=O)O)NC(=O)C(C)(C)NC(=O)C(C)(C)NC(=O)[C@@H](NC(=O)[C@H](CCCCNC(C)=O)NC(=O)[C@H](C)NC(=O)[C@H](CCCNC(=N)N)NC(=O)[C@@H](NC(=O)[C@H](CCCCN)NC(=O)[C@H](CCC(=O)O)NC(=O)[C@H](CCCNC(=N)N)NC(=O)CNC(=O)[C@H](CCC(=O)O)NC(=O)[C@H](CC(C)C)NC(C)=O)C(C)C)[C@@H](C)CC)C(=O)N[C@@H](CO)C(=O)N[C@H](C(=O)N[C@@H](Cc1c[nH]c2ccccc12)C(=O)N[C@@H](CO)C(=O)NC(C)(C)C(=O)N[C@@H](CCCNC(=N)N)C(=O)N[C@@H](CCCCN)C(=O)N[C@@H](CCCCN)C(N)=O)[C@@H](C)O` [compound 24] (Ac-LEGREKVRAK(Ac)I[Aib][Aib]EG[Nle]STWS[Aib]RKK-NH2), the maximum response (Emax) was determined as 92%.

In the case of `CCCC[C@H](NC(=O)CNC(=O)[C@H](CCC(=O)O)NC(=O)C(C)(C)NC(=O)C(C)(C)NC(=O)[C@@H](NC(=O)[C@H](CCCCNC(C)=O)NC(=O)[C@H](C)NC(=O)[C@H](CCCNC(=N)N)NC(=O)[C@@H](NC(=O)[C@H](CCCCN)NC(=O)[C@H](CCC(=O)O)NC(=O)[C@H](CCCNC(=N)N)NC(=O)CNC(=O)[C@H](CCC(=O)O)NC(=O)[C@H](CC(C)C)NC(C)=O)C(C)C)[C@@H](C)CC)C(=O)N[C@@H](CO)C(=O)N[C@H](C(=O)N[C@@H](Cc1c[nH]c2ccccc12)C(=O)N[C@@H](CO)C(=O)N[C@@H](CCCCNC(C)=O)C(=O)N[C@@H](CCCNC(=N)N)C(=O)N[C@@H](CCCCN)C(=O)N[C@@H](CCCCN)C(N)=O)[C@@H](C)O` [compound 25] (Ac-LEGREKVRAK(Ac)I[Aib][Aib]EG[Nle]STWSK(Ac)RKK-NH2), the Emax was 100% and the EC50 was not above 5 nM.
